We go through 16 compounds from US11840528B2 (Hoffmann-La Roche Inc., priority 2018, dated 2023).

For assay [1], the target named is T1, h-GABA-A α5β3γ2 (Homo sapiens, UniProt P18507+P31644). Nature of the assay: [3H]flumazenil competition binding assay, membranes of HEK293 cells expressing GABAA receptors. The conditions noted are these: displacement of [3H]-Flumazenil 0.5 nM, HEK293 cells expressing human receptors, mean of two determinations; Table 1. As for the experimental part: The affinity of compounds at GABAA receptor subtypes was measured by competition for [3H]flumazenil (85 Ci/mmol; Roche) binding to HEK293 cells expressing rat (stably transfected) or human (transiently transfected) receptors of composition α1β3γ2, α2β3γ2, α3β3γ2 and α5β3γ2.
Cell pellets were suspended in Krebs-tris buffer (4.8 mM KCl, 1.2 mM CaCl2), 1.2 mM MgCl2, 120 mM NaCl, 15 mM Tris; pH 7.5; binding assay buffer), homogenized by polytron for ca. 20 sec on ice and centrifuged for 60 min at 4° C. (50000 g; Sorvall, rotor: SM24=20000 rpm). The cell pellets were resuspended in Krebs-tris buffer and homogenized by polytron for ca. 15 sec on ice. Protein was measured (Bradford method, Bio-Rad) and aliquots of 1 mL were prepared and stored at −80° C.
Assays were incubated to equilibrium for 1 hour at 4° C. and harvested onto GF/C uni-filters (Packard) by filtration using a Packard harvester and washing with ice-cold wash buffer (50 mM Tris; pH 7.5). After drying, filter-retained radioactivity was detected by liquid scintillation counting. Ki values were calculated using Excel-Fit (Microsoft) and are the means of two determinations.
(Displacement assays read how much labelled ligand stays bound in the presence of the test substance.)

Assay [2] addresses T1, h-GABA-A α5β3γ2. Nature of the assay: Two-electrode voltage clamp electrophysiology in Xenopus laevis oocytes expressing GABAA receptors, modulation of GABA EC20 current. Format: cell-based. More on the design: host or cells: Xenopus laevis oocytes micro-injected with RNA transcripts of the subunits. The conditions noted are these: Table 1; for Efficacy (GABA) %: % modulation of GABA EC20 = 100*(Fold increase-1); for Fold increase h-GABA-A α5β3γ2 oocyte: test compound at approx. 30 fold its Ki, GABA at EC20. As for the experimental part:
Xenopus laevis oocytes at maturation stages V-VI were used for the expression of cloned mRNA encoding GABAA receptor subunits. Oocytes ready for RNA micro-injection were bought from Ecocyte, Castrop-Rauxel, Germany and stored in modified Barth's medium (composition in mM: NaCl 88, KCl 1, NaHCO32.4, HEPES 10, MgSO4 0.82, CaNO3 0.33, CaCl2 0.33, pH=7.5) at 20° C. until the experiment.
Oocytes were plated in 96-well plates to be used in an automated instrument (Robo-ocyte, MultiChannelSystems, Reutlingen, Germany) for microinjection and electrophysiological recordings. Approximately 50 nl of an aqueous solution containing the RNA transcripts for the subunits of the desired GABAA receptor was injected into each oocyte. RNA concentrations ranged between 0.3 and 16 ng/μl/subunit and were adjusted in pilot experiments to obtain GABA responses of a suitable size and a maximal effect of the reference modulator, Beta-CCM (β-CCM), a betacarboline negative allosteric modulator (NAM) at the GABAA receptor benzodiazepine (BZD) binding site or Midazolam, a benzodiazepine positive allosteric modulator (PAM) at the GABAA receptor benzodiazepine (BZD) binding site. The concentration of the γ2 subunit encoding RNA usually was 5- to 10-fold higher than the RNAs encoding the other subunits. Oocytes were kept in modified Barth's medium (composition in mM: NaCl 88, KCl 1, NaHCO3 4, HEPES 10, MgSO4 0.82, CaNO3 0.33, CaCl2) 0.33, pH=7.5) at 20° C. until the experiment.
Electrophysiological experiments were performed on days 3 to 5 after the micro-injection of mRNA. During the experiment the oocytes were constantly superfused by a solution containing (in mM) NaCl 90, KCl 1, HEPES 5, MgCl2 1, CaCl2) 1 (pH 7.4). Oocytes were impaled by two glass microelectrodes (resistance: 0.4 MΩ) which were filled with a solution containing KCl 1M+K-acetate 1.5 M and voltage-clamped to −80 mV. The recordings were performed at room temperature using the Roboocyte two-electrode voltage clamp system (Multichannelsystem). After an initial equilibration period of 1.5 min GABA was added for 1.5 min at a concentration evoking approximately 20% of a maximal current response (EC20). After another rest interval of 2.5 min GABA was again added evoking a response of similar amplitude and shape. 0.5 min after the onset of this second GABA application the test compound, at a concentration corresponding to approximatively 30 fold its Ki, was added while GABA was still present. Current traces were recorded at a digitization rate of 10 Hz during and shortly before and after the GABA application.
Each compound and concentration was tested on at least 3 oocytes. Different oocytes were used for different compound concentrations. β-CCM, a negative allosteric modulator, or Midazolam, a positive allosteric modulators, were tested on a few (3-6) oocytes on each 96-well plate for a positive control at a maximally effective. β-CCM inhibited the GABA-evoked current by approximatively 50% (Fold increase ˜0.5), while Midazolam potentiated the GABA-induced current by approximatively 150% (Fold increase ˜2.5).
For the analysis, the digitized current traces of the first and second GABA response were superimposed and, if necessary, rescaled to equal maximal amplitudes. The ratio between the two responses during the time interval of test compound application was calculated point by point. The extremum of the resulting “ratio trace” was taken as the efficacy (“Fold increase”) of the compound expressed as “% modulation of GABA EC20” (100*(Fold increase-1)).
Background: Two-electrode voltage clamp is typically applied to oocytes expressing channels or transporters.

On to `Cc1ccc(-c2noc(C)c2Cn2ncc(-c3ccc(OC(F)(F)F)cc3)cc2=O)cn1` [Example 114, 2-((5-methyl-3-(6-methyl-3-pyridyl)isoxazol-4-yl)methyl)-5-(4-(trifluoromethoxy)phenyl)pyridazin-3-one], for which, in assay [1], the affinity corresponds to a Ki of 24 nM. Further, in assay [2], the “Efficacy (GABA) %” value stood at 81% and the “Fold increase h-GABA-A α5β3γ2 oocyte” value is listed as 1.81.
Regarding `Cc1onc(-c2ccc(Cl)nc2)c1Cn1ncc(N2CCC3(CCOCC3)CC2)cc1=O` [Example 248, 2-((3-(6-chloropyridin-3-yl)-5-methylisoxazol-4-yl)methyl)-5-(3-oxa-9-azaspiro[5.5]undecan-9-yl)pyridazin-3(2H)-one], the affinity in assay [1], expressed as Ki, was 24.6 nM. In assay [2], the “Efficacy (GABA) %” value was found to be 107% and the “Fold increase h-GABA-A α5β3γ2 oocyte” value came out at 2.07.
In the case of `Cc1ccc(-c2noc(C)c2Cn2ncc(N3CC4(CC(C)CCO4)C3)cc2=O)nn1` (single isomer, unassigned) [Example 318], in assay [1], affinity was put at a Ki of 5.6 nM. Also, in assay [2], the “Efficacy (GABA) %” value amounted to 111% and the “Fold increase h-GABA-A α5β3γ2 oocyte” value turned out to be 2.11.
Turning to `Cc1onc(-c2ccc(Cl)nc2)c1Cn1ncc(N2CC3(CCC(F)CO3)C2)cc1=O` (single isomer, unassigned) [Example 298], in assay [1], affinity was put at a Ki of 25.4 nM. In addition, in assay [2], the “Efficacy (GABA) %” value is listed as 116% and the “Fold increase h-GABA-A α5β3γ2 oocyte” value amounted to 2.16.
Consider `Cc1onc(-c2ccc(Cl)nc2)c1Cn1ncc(N2CCC3(CCCO3)CC2)cc1=O` [Example 256, 2-((3-(6-chloropyridin-3-yl)-5-methylisoxazol-4-yl)methyl)-5-(1-oxa-8-azaspiro[4.5]decan-8-yl)pyridazin-3(2H)-one], for which, in assay [1], the Ki (usually a measure of affinity in units of concentration, obtained from inhibition or displacement) was determined as 45.4 nM. In assay [2], the “Efficacy (GABA) %” value is reported as 126% and the “Fold increase h-GABA-A α5β3γ2 oocyte” value is on record as 2.26.
In assay [1], `Cc1onc(-c2ccc(Cl)nc2)c1Cn1ncc(N2CC3(CC(F)CCO3)C2)cc1=O` (single isomer, unassigned) [Example 296, (R or S)-2-((3-(6-chloropyridin-3-yl)-5-methylisoxazol-4-yl)methyl)-5-(8-fluoro-5-oxa-2-azaspiro[3.5]nonan-2-yl)pyridazin-3(2H)-one] registered a Ki of 27.7 nM. For the same compound, in assay [2], the “Efficacy (GABA) %” value was 84% and the “Fold increase h-GABA-A α5β3γ2 oocyte” value is listed as 1.84.
The compound `Cc1ccc(-c2noc(C)c2Cn2ncc(N3CC4(COC4)C3)cc2=O)cn1` [Example 38, 2-[[5-methyl-3-(6-methyl-3-pyridyl)isoxazol-4-yl]methyl]-5-(2-oxa-6-azaspiro[3.3]heptan-6-yl)pyridazin-3-one] returned a Ki in assay [1] of 38.4 nM. Also, in assay [2], the “Efficacy (GABA) %” value turned out to be 181% and the “Fold increase h-GABA-A α5β3γ2 oocyte” value stood at 2.81.
On to `COC1(C)CCN(c2cnn(Cc3c(-c4ccc(Cl)nc4)noc3C)c(=O)c2)CC1` [Example 262, 2-((3-(6-chloropyridin-3-yl)-5-methylisoxazol-4-yl)methyl)-5-(4-methoxy-4-methylpiperidin-1-yl)pyridazin-3(2H)-one], for which, in assay [1], the affinity corresponds to a Ki of 35.5 nM. Besides, in assay [2], the “Efficacy (GABA) %” value came out at 216% and the “Fold increase h-GABA-A α5β3γ2 oocyte” value worked out at 3.16.
Taken in the same sequence, the figures for `Cc1ccc(-c2noc(C)c2Cn2ncc(N3CCN(C4CC4)CC3)cc2=O)cn1` [Example 36, 5-(4-cyclopropylpiperazin-1-yl)-2-[[5-methyl-3-(6-methyl-3-pyridyl)isoxazol-4-yl]methyl]pyridazin-3-one] were 13.8 nM, 145% and 2.45.
With `Cc1onc(-c2ccc(Cl)nc2)c1Cn1ncc(N2CCN3C(=O)CCC3C2)cc1=O` (stereo not drawn) [Example 223, 2-(1-((3-(6-chloropyridin-3-yl)-5-methylisoxazol-4-yl)methyl)-6-oxo-1,6-dihydropyridazin-4-yl)hexahydropyrrolo[1,2-a]pyrazin-6(2H)-one], the Ki in assay [1] worked out at 27.6 nM. In addition, in assay [2], the “Efficacy (GABA) %” value worked out at 215% and the “Fold increase h-GABA-A α5β3γ2 oocyte” value was determined as 3.15.
The compound `Cc1onc(-c2ccc(Cl)nc2)c1Cn1ncc(N2CC3(C[C@H](F)CO3)C2)cc1=O` [Example 232, (S)-2-((3-(6-chloropyridin-3-yl)-5-methylisoxazol-4-yl)methyl)-5-(7-fluoro-5-oxa-2-azaspiro[3.4]octan-2-yl)pyridazin-3(2H)-one] came in with a Ki in assay [1] of 37 nM. In assay [2], the “Efficacy (GABA) %” value is recorded as 104% and the “Fold increase h-GABA-A α5β3γ2 oocyte” value came to 2.04.
Take `Cc1ccc(-c2noc(C(F)F)c2Cn2ncc(N3C[C@@H](C)O[C@@H](C)C3)cc2=O)cn1` [Example 182, 2-((5-(Difluoromethyl)-3-(6-methylpyridin-3-yl)isoxazol-4-yl)methyl)-5-((2S,6R)-2,6-dimethylmorpholino)pyridazin-3(2H)-one]: the Ki in assay [1] was 18.9 nM. In assay [2], the “Efficacy (GABA) %” value worked out at 209% and the “Fold increase h-GABA-A α5β3γ2 oocyte” value came out at 3.09.
Taken in the same sequence, the figures for `Cc1ccc(-c2noc(CF)c2Cn2ncc(N3C[C@@H](C)O[C@@H](C)C3)cc2=O)cn1` [Example 243, 5-((2S,6R)-2,6-dimethylmorpholin-4-yl)-2-((5-(fluoromethyl)-3-(6-methylpyridin-3-yl)-1,2-oxazol-4-yl)methyl)pyridazin-3-one] were 4.6 nM, 173% and 2.73.
In assay [1], `Cc1ccc(-c2noc(C)c2Cn2ncc(N3CC(O)C3)cc2=O)cn1` [Example 105, 5-(3-hydroxyazetidin-1-yl)-2-[[5-methyl-3-(6-methyl-3-pyridyl)isoxazol-4-yl]methyl]pyridazin-3-one] had a Ki of 6 nM. Also, in assay [2], the “Efficacy (GABA) %” value is 72% and the “Fold increase h-GABA-A α5β3γ2 oocyte” value was 1.72.
In the case of `Cc1ccc(-c2noc(C)c2Cn2ncc(N3CC(OC(C)(C)C(F)(F)F)C3)cc2=O)nn1` [Example 264, 2-[[5-methyl-3-(6-methylpyridazin-3-yl)isoxazol-4-yl]methyl]-5-[3-(2,2,2-trifluoro-1,1-dimethyl-ethoxy)azetidin-1-yl]pyridazin-3-one], the affinity in assay [1], expressed as Ki, was 3 nM. In addition, in assay [2], the “Efficacy (GABA) %” value was 93% and the “Fold increase h-GABA-A α5β3γ2 oocyte” value came out at 1.93.
In turn, `Cc1ccc(-c2noc(C)c2Cn2ncc(N3CCC4(CCCCO4)CC3)cc2=O)nn1` [Example 302, 2-[[5-methyl-3-(6-methylpyridazin-3-yl)isoxazol-4-yl]methyl]-5-(1-oxa-9-azaspiro[5.5]undecan-9-yl)pyridazin-3-one] displayed a Ki in assay [1] of 2 nM. Besides, in assay [2], the “Efficacy (GABA) %” value was 149% and the “Fold increase h-GABA-A α5β3γ2 oocyte” value was 2.49.
